Source: patent US7153961B2, “Salt and crystalline form thereof of a corticotropin releasing factor receptor antagonist” (Bristol-Myers Squibb Pharma Co., priority 2003, dated 2006)

Key:
[1] = hygroscopicity (uptake at 90% relative humidity); type: physicochemical
solubility = type: physicochemical; details: in e.g., polar solvents, water, glycols, and aqueous mixtures

hygroscopicity (uptake) [1]: less than 2% | solubility (solubility): soluble
SMILES: COCCN(CCOC)c1nc(C)nc2c(-c3ccc(OC)cc3C)c(C)nn12.O=S(=O)(O)c1ccccc1 [polymorph H-1, 4-(bis(2-methoxyethyl)amino)-2,7-dimethyl-8-(2-methyl-4-methoxyphenyl)-[1,5-a]-pyrazolo-1,3,5-triazine benzenesulfonate]
